According to ChEMBL document CHEMBL1127360, “Antipodal alpha-N-(methyl through decyl)-N-normetazocines (5,9 alpha-dimethyl-2'-hydroxy-6,7-benzomorphans): in vitro and in vivo properties” (J Med Chem, 1994):
Active and inactive are the calls of the source. No cut-off for these calls is given here.

Columns and labels:
Mus musculus [1] = experiment: In vivo for its narcotic antagonistic activity of the antinociceptive effect in mouse; format: functional, organism-based
Mus musculus [2] = experiment: In vivo antinociceptive activity was tested through tail flick (TF) with this compound in mouse at 30 mg/kg concentration; format: functional
Mus musculus [3] = experiment: In vivo antinociceptive activity at 10 mg/kg was tested through hot plate (HP) by placing mouse on hot plate, and calculating number of times it jumps or licks its paw in 5 seconds; format: functional
Mus musculus [4] = experiment: In vivo antinociceptive activity at 10 mg/kg was tested through injecting 2 mg/kg ip phenylquinone, activity calculated by total number of abdominal-stretches per group counted over a 1 min period; format: functional
Mu-type opioid receptor = Mu-type opioid receptor (Rattus norvegicus, UniProt P33535); experiment: Inhibition against mu receptor using [3H]DAMGO in homogenate of rat brain cerebellum; format: tissue-based
Chain of Mu-type opioid receptor (P33535 whole entry): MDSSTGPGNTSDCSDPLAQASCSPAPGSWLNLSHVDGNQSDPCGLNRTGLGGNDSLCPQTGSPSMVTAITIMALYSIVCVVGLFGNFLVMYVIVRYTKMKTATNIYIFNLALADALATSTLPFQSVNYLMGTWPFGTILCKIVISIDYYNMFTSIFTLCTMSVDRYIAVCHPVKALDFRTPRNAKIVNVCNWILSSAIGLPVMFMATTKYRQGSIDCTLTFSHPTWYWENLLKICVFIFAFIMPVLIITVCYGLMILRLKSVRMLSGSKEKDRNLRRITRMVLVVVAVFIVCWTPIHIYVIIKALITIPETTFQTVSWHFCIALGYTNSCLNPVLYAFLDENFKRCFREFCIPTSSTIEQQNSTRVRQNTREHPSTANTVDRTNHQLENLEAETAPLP

Glutamate NMDA receptor = experiment: Inhibition using [3H]TCP in homogenate of rat brain; format: tissue-based

For `C[C@@H]1C2Cc3ccc(O)cc3[C@]1(C)CCN2`, the Activity (Mus musculus [1]) was “inactive”, the inhibition in vivo at 30 mg/kg (Mus musculus [2]) was 27% and the inhibition in vivo at 10 mg/kg (Mus musculus [3]) was 13%. For the same compound, the Inhibition (Mus musculus [4]) was 23%, the Ki (Mu-type opioid receptor) was 470 nM and the Ki (Glutamate NMDA receptor) was 30 nM.
